Key:
Assay type in all cases: cell-based, human
caspase-6 = experiment: Caspase 6 colorimetric assay; settings: 0.5 μM, 24 h
Description: (§1) Possible activation of caspase 3, -6 and -8 was investigated by means of caspase 3, caspase 6 and FLICE/caspase 8 colorimetric kits, respectively. Cells (1,000,000) were seeded with an overnight attachment policy. After 24 h of exposure to 0.5 μM of the sulphamoylated 2ME2 analogues, cells were detached with trypsin and centrifuged at 13,000× g. Cells (500,000) were resuspended in 50 µl of chilled cell lysis buffer and incubated on ice for 10 min. Cells were centrifuged at 10,000×g for a min. Supernatant was transferred to a fresh tube and put on ice. After determination of the protein concentration using the bicinchoninic acid (BCA) protein assay (Thermo Fisher Scientific, Johannesburg, South Africa), 100 µg protein/50 µl cell lysis buffer was mixed with 50 µl 2X reaction buffer (containing 10 mM Dithiothreitol (DTT)). Ac-Asp-Glu-Val-Asp-p-nitroanilide (Ac-DEVD-pNA) (5 µl of 4 mM) (caspase-3-specific substrate), or 5 µl 4 mM […] (Ac-VEID-pNA) (caspase-6-specific substrate), or 5 µl 4 mM Ac-Ile-Glu-Thr-Asp-p-nitroanilide (Ac-IETD-pNA) (caspase-8-specific substrate) was added and the mixture was incubated at 37°C for 120 min (200 µM final concentration). Absorbance was determined at 405 nm on the ELx800 Universal Microplate Reader available from Bio-Tek Instruments Inc. (Vermont, United States of America).

HeLa cells [1] = experiment: Cytochrome c release (FlowCellect, flow cytometry); settings: 0.5 μM analogues (2-methoxyestradiol-bis-sulphamate 0.55 μM), 24 h
Description: (§2) This kit utilizes a unique set of buffers that selectively permeabilizes the […] without affecting the mitochondrial membrane. […] Cells (500,000) were seeded with an overnight attachment policy. After 24 h of exposure to 0.5 μM of the sulphamoylated 2ME2 analogues, cells were detached using trypsin and centrifuged at 13,000×g. Cells (500,000) were resuspended in PBS, centrifuged and resuspended in permeabilization buffer (according to supplier's instructions) for 10 min on ice. Subsequently cells were centrifuged, resuspended in 100 µl fixation buffer (according to supplier's instructions) for 20 min at room temperature, centrifuged again and resuspended in blocking buffer (150 µl). After another centrifugation step, cells were centrifuged and resuspended in blocking buffer (twice). Anti-cytochrome c-FITC (10 µl) was added to each sample and samples were incubated for 30 min at room temperature. Cells were centrifuged and blocking buffer (100 µl) was added. After centrifugation, blocking buffer (200 µl) was added to the samples for analysis via flow cytometry (FC500 System flow cytometer, Beckman Coulter South Africa (Pty) Ltd). Cells presenting with cytochrome c release were detected in the fluorescein isothiocyanate (FITC) channel (FL1) showing diffused green fluorescence. Data from at least 10 000 cells were analyzed by means of Cyflogic version 1.2.1 software (Pertu Therho, Turko, Finland).

MDA-MB-231 cells = experiment: Cytochrome c release (FlowCellect, flow cytometry); settings: MDA-MB-231, 0.5 μM analogues (2-methoxyestradiol-bis-sulphamate 0.55 μM), 24 h
Description: as §2

HeLa cells [2] = experiment: Cytotoxicity: lactate dehydrogenase assay; settings: 24 h, compared to vehicle-treated cells
Description: Lactate dehydrogenase (LDH) is a soluble cytosolic enzyme that catalyzes the interconversion of lactate and pyruvate. Cells release LDH during injury or cell damage, following the loss of membrane integrity consequential from either apoptosis or necrosis. LDH activity can therefore be used as an indicator of cell membrane integrity and serves as a general mean to assess for cytotoxicity resulting from exposure to chemical compounds. Cells were seeded in 96 well plates at a cell density of 5,000 cells per well (incubated at 37°C at 5% CO2). After 24 h, cells were exposed to 0.1–25 μM sulphamoylated 2ME2 analogues including vehicle-treated controls and incubated for 24 h at 37°C. Subsequently, the 200 μl medium was transferred and centrifuged at 5,000 rpm for 10 min. Supernatant (10 μl) was then transferred to an optimally clear 96 well plate. LDH reaction mix (100 μl mixed according to the supplier's manual instructions) was added to the medium. After 90 min incubation at room temperature, the absorbance was read at 460 nm (reference wavelength of 630 nm) with an ELx800 Universal Microplate Reader from Bio-Tek Instruments Inc. (Vermont, United States of America).

HeLa cells [3] = experiment: Mitochondrial membrane potential assay (Mitocapture, flow cytometry); settings: 0.5 μM analogues (2-methoxyestradiol-bis-sulphamate 0.55 μM), 24 h
Description: Cells (500,000) were seeded with an overnight attachment policy. After 24 h of exposure to 0.5 μM of the sulphamoylated 2ME2 analogues, cells were detached using trypsin and centrifuged at 13,000×g.

caspase 3 = experiment: Caspase 3 colorimetric assay in MDA-MB-231 cells; settings: MDA-MB-231, 0.5 μM, 24 h
Description: as §1

| SMILES | caspase-6 activity ratio compared to vehicle-treated cells (caspase-6) | Cytochrome c in cytoplasm (cells with cytochrome c release) (HeLa cells [1]) | Cytochrome c in cytoplasm (cells with cytochrome c release) (MDA-MB-231 cells) | LDH levels / LDH release (HeLa cells [2]) | cells with reduced mitochondrial potential (HeLa cells [3]) | caspase 3 activity (caspase 3) |
| --- | --- | --- | --- | --- | --- | --- |
| CCc1cc2c(cc1OS(N)(=O)=O)CC[C@@H]1C2CC[C@]2(C)[C@@H](OS(N)(=O)=O)CC[C@@H]12 (stereo partly drawn) [EMBS, (8R, 13S, 14S, 17S)-2-ethyl-13-methyl-7,8,9, 11, 12,13, 14, 15, 16, 17-decahydro-6H-cyclopenta [a] phenanthrane-3, 17-diyl bis (sulphamate)] | 3.1 | 21–23% | 21–23% | No statistically significant increase in LDH levels |  |  |
| CCc1cc2c(cc1OS(N)(=O)=O)CC[C@@H]1[C@@H]2CC[C@]2(C)C(=O)C=C[C@@H]12 [ESE-15-one, 2-Ethyl-3-O-sulphamoyl-estra-1,3,5 (10) 15-tetraene-3-ol-17one] |  | 35% | 34% | No statistically significant increase in LDH levels | 72% | most affected |

— publication PMC3764137, “Sulphamoylated 2-Methoxyestradiol Analogues Induce Apoptosis in Adenocarcinoma Cell Lines” (PLoS ONE, 2013)
